Data from article doi:10.1101/2021.09.30.462449v1 (biorxiv, 2021).

Experiments:
Experiment in all cases: biochemical
Conditions in all cases: read-out: % inhibition mean (Lanthascreen)
CDK2/cyclin O = CDK2/cyclin O (Homo sapiens, UniProt P24941)
MAP2K4 (MEK4) = MAP2K4 (MEK4) (Homo sapiens, UniProt P45985)
PKN2 (PRK2) = PKN2 (PRK2) (Homo sapiens, UniProt Q16513)
WNK2 = WNK2 (Homo sapiens, UniProt Q9Y3S1)
TNK2 (ACK) = TNK2 (ACK) (Homo sapiens, UniProt Q07912)
CDK14 (PFTK1)/cyclin Y = CDK14 (PFTK1)/cyclin Y (Homo sapiens, UniProt O94921)
ICK = ICK (Homo sapiens, UniProt Q9UPZ9)
KIT V654A = KIT V654A (Homo sapiens, UniProt P10721, V654A)
Sequence of KIT V654A (P10721 whole entry V654A): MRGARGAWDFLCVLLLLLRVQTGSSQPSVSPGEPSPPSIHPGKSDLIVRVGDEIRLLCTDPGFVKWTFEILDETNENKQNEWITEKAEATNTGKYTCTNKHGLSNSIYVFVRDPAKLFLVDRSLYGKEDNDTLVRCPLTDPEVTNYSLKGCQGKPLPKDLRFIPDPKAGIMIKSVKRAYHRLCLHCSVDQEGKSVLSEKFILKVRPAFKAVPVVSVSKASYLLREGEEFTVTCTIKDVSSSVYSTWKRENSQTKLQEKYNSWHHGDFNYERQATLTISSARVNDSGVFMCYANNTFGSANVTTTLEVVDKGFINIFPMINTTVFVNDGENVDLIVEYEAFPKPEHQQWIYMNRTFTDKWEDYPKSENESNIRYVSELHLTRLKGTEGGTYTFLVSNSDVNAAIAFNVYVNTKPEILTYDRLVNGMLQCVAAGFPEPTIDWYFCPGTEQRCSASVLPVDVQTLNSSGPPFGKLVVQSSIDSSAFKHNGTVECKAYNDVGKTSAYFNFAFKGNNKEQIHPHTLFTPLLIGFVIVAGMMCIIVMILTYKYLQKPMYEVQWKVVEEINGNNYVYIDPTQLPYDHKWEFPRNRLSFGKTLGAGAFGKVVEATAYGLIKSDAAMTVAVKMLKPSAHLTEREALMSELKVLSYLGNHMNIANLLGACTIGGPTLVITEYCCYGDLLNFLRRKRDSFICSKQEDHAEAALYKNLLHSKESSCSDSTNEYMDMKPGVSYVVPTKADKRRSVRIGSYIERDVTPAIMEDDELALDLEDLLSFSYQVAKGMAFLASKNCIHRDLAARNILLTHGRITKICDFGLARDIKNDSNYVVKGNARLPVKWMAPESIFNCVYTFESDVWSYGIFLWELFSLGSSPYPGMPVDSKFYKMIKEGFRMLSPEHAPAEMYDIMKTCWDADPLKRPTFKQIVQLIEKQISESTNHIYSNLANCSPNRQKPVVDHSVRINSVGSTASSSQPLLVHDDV

MAP2K1 (MEK1) = MAP2K1 (MEK1) (Homo sapiens, UniProt Q02750)
MAP3K14 (NIK) = MAP3K14 (NIK) (Homo sapiens, UniProt Q99558)
IRAK3 = IRAK3 (Homo sapiens, UniProt Q9Y616)
Sequence of IRAK3 (Q9Y616 whole entry): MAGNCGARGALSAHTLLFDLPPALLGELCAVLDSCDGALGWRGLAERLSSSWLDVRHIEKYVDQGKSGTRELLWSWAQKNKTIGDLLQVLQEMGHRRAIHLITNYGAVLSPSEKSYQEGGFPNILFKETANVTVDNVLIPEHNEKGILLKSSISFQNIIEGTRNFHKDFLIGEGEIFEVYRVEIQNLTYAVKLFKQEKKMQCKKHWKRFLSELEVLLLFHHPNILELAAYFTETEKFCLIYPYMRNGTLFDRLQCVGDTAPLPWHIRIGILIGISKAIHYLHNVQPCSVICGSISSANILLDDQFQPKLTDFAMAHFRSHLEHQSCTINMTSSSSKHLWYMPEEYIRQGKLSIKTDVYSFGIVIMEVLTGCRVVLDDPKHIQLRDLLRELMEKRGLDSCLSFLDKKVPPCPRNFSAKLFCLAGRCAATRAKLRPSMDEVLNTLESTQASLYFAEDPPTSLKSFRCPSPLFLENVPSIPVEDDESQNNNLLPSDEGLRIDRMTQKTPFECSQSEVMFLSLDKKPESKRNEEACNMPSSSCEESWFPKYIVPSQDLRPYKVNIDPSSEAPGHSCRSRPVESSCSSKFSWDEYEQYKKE

PLK4 = PLK4 (Homo sapiens, UniProt O00444)
ULK1 = ULK1 (Homo sapiens, UniProt O75385)
ACVR2B = ACVR2B (Homo sapiens, UniProt Q13705)
PRKACG (PRKAC gamma) = PRKACG (PRKAC gamma) (Homo sapiens, UniProt P22612)
BRSK2 = BRSK2 (Homo sapiens, UniProt Q8IWQ3)
HUNK = HUNK (Homo sapiens, UniProt P57058)
LIMK1 = LIMK1 (Homo sapiens, UniProt P53667)
Sequence of LIMK1 (P53667 whole entry): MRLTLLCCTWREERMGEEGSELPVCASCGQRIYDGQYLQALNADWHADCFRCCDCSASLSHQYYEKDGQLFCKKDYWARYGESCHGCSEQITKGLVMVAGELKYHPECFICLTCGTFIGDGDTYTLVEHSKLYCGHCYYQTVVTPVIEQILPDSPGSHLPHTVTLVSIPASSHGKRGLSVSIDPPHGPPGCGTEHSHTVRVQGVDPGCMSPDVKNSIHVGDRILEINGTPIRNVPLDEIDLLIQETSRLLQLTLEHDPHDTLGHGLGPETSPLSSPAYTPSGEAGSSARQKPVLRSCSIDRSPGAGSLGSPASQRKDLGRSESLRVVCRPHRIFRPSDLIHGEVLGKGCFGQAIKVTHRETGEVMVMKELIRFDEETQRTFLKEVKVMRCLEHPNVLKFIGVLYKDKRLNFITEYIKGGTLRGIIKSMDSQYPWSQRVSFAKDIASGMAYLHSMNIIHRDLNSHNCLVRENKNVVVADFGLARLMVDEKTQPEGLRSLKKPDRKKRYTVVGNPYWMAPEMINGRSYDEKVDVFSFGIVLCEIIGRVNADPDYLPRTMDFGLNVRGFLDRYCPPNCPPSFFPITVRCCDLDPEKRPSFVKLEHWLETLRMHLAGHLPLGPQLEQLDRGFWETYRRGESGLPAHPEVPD

ACVR1 (ALK2) R206H = ACVR1 (ALK2) R206H (Homo sapiens, UniProt Q04771, R206H)
FGFR3 G697C = FGFR3 G697C (Homo sapiens, UniProt P22607, G697C)
PRKACB (PRKAC beta) = PRKACB (PRKAC beta) (Homo sapiens, UniProt P22694)
RAF1 (cRAF) Y340D Y341D = RAF1 (cRAF) Y340D Y341D (Homo sapiens, UniProt P04049, Y340D/Y341D)
MAP2K6 (MKK6) = MAP2K6 (MKK6) (Homo sapiens, UniProt P52564)
ACVRL1 (ALK1) = ACVRL1 (ALK1) (Homo sapiens, UniProt P37023)
Sequence of ACVRL1 (ALK1) (P37023 whole entry): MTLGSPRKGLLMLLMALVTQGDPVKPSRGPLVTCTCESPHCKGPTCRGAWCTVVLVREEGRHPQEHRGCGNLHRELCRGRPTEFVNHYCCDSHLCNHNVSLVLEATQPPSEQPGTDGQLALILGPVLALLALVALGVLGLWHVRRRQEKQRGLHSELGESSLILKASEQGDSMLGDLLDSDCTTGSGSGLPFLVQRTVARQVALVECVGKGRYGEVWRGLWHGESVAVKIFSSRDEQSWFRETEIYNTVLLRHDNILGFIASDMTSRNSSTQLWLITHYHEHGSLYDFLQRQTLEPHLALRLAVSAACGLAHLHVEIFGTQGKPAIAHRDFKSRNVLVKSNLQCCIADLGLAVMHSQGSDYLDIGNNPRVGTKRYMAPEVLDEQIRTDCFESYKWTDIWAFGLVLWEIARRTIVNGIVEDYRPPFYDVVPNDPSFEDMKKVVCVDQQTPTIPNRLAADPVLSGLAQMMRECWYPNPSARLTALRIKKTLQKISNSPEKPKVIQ

TESK1 = TESK1 (Homo sapiens, UniProt Q15569)
MET D1228H = MET D1228H (Homo sapiens, UniProt P08581, D1228H)
ACVR1 (ALK2) = ACVR1 (ALK2) (Homo sapiens, UniProt Q04771)
TLK2 = TLK2 (Homo sapiens, UniProt Q86UE8)

Sequence of WNK2 (Q9Y3S1 whole entry): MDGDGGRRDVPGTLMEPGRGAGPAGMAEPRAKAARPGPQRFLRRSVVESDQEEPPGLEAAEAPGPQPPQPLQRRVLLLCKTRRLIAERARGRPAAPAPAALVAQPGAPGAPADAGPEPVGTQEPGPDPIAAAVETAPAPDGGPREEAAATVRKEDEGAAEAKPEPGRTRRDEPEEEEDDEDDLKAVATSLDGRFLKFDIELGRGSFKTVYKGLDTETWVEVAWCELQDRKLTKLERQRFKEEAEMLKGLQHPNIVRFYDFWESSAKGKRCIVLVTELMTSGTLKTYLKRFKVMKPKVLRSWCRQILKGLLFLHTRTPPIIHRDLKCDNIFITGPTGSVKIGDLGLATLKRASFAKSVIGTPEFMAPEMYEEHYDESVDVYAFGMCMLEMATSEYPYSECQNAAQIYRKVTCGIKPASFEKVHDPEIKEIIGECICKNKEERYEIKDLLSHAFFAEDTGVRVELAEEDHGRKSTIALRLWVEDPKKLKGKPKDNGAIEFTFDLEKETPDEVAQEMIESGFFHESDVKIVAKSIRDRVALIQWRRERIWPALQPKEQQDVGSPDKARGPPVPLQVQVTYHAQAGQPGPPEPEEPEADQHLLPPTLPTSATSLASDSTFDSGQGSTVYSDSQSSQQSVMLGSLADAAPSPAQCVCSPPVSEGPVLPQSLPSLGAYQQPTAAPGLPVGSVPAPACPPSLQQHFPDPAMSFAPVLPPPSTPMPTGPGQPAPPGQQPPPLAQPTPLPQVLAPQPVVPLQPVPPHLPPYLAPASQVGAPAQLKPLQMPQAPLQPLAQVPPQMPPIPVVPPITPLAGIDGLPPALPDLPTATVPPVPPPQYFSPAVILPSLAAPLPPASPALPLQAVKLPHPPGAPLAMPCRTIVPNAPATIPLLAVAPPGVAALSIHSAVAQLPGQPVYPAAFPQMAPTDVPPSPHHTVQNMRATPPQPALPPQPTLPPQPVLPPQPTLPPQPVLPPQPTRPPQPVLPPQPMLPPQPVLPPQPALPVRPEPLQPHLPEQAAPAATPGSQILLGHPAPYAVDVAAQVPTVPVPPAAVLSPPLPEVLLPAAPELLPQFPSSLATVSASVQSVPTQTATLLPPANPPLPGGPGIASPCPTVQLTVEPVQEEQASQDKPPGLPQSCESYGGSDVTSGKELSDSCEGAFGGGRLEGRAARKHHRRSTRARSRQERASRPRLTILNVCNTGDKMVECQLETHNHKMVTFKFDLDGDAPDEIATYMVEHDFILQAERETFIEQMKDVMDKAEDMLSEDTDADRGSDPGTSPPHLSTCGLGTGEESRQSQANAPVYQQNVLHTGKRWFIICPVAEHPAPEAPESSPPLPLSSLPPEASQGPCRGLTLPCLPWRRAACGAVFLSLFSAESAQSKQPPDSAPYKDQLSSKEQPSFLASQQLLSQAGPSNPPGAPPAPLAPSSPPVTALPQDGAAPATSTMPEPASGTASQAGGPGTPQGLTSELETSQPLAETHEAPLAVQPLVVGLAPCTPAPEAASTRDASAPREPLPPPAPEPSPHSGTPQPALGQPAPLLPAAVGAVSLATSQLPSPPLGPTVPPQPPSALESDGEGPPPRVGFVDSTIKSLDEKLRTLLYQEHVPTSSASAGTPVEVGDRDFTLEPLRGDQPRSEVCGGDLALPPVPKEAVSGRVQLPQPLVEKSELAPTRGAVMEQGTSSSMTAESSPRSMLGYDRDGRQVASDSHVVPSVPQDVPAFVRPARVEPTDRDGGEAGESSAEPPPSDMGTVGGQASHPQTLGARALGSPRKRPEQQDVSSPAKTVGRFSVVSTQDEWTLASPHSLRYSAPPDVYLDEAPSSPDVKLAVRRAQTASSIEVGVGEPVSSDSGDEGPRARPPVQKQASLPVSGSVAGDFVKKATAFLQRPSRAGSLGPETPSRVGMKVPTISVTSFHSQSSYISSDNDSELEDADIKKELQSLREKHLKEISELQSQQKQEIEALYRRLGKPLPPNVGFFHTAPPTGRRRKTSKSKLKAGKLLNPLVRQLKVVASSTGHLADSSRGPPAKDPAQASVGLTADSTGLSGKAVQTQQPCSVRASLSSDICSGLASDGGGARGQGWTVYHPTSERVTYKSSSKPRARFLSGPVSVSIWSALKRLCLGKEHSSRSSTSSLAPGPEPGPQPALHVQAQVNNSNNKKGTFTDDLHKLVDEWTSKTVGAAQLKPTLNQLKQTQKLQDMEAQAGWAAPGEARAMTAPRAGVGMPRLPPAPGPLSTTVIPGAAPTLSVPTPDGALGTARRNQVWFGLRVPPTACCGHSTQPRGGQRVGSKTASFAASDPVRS

COc1ccc2nc3cc(Cl)ccc3c(Nc3cc(CN4CCCC4)c(O)c(CN4CCCC4)c3)c2n1 [Pyronaridine, 4-[(7-Chloro-2-methoxybenzo[b][1,5]naphthyridin-10-yl)amino]-2,6-bis(1-pyrrolidinylmethyl)phenol phosphate (1:4)] gave an inhibition at 1 µM (CDK2/cyclin O) of 2%, an inhibition at 1 µM (MAP2K4 (MEK4)) of 1% and an inhibition at 1 µM (PKN2 (PRK2)) of 6%. It also gave an inhibition at 1 µM (WNK2) of 4%, an inhibition at 1 µM (TNK2 (ACK)) of 1% and an inhibition at 1 µM (CDK14 (PFTK1)/cyclin Y) of 14%. It also gave an inhibition at 1 µM (ICK) of 0%, an inhibition at 1 µM (KIT V654A) of 10% and an inhibition at 1 µM (MAP2K1 (MEK1)) of 1%. The inhibition at 1 µM (MAP3K14 (NIK)) was 2%, the inhibition at 1 µM (IRAK3) was -5% and the inhibition at 1 µM (PLK4) was 6%. It also gave an inhibition at 1 µM (ULK1) of -4%, an inhibition at 1 µM (ACVR2B) of 8% and an inhibition at 1 µM (PRKACG (PRKAC gamma)) of 2%. The inhibition at 1 µM (BRSK2) was 4%, the inhibition at 1 µM (HUNK) was -1% and the inhibition at 1 µM (LIMK1) was -7%. For the same compound, the inhibition at 1 µM (ACVR1 (ALK2) R206H) was 2%, the inhibition at 1 µM (FGFR3 G697C) was 7% and the inhibition at 1 µM (PRKACB (PRKAC beta)) was 12%. It also gave an inhibition at 1 µM (RAF1 (cRAF) Y340D Y341D) of -5%, an inhibition at 1 µM (MAP2K6 (MKK6)) of 9% and an inhibition at 1 µM (ACVRL1 (ALK1)) of 12%. It also gave an inhibition at 1 µM (TESK1) of -2%, an inhibition at 1 µM (MET D1228H) of 3% and an inhibition at 1 µM (ACVR1 (ALK2)) of 0%. For the same compound, the inhibition at 1 µM (TLK2) was -2%.
